Assay results as given in patent publication US20190152946A1, “Novel Compounds” (GlaxoSmithKline Intellectual Property Development Limited, priority 2016, published 2019).

Biological target: T1, TEC (Homo sapiens, UniProt P42680)
T1 construct: endogenous in cells; host or cells: THP-1
T1 sequence (P42680 1-631): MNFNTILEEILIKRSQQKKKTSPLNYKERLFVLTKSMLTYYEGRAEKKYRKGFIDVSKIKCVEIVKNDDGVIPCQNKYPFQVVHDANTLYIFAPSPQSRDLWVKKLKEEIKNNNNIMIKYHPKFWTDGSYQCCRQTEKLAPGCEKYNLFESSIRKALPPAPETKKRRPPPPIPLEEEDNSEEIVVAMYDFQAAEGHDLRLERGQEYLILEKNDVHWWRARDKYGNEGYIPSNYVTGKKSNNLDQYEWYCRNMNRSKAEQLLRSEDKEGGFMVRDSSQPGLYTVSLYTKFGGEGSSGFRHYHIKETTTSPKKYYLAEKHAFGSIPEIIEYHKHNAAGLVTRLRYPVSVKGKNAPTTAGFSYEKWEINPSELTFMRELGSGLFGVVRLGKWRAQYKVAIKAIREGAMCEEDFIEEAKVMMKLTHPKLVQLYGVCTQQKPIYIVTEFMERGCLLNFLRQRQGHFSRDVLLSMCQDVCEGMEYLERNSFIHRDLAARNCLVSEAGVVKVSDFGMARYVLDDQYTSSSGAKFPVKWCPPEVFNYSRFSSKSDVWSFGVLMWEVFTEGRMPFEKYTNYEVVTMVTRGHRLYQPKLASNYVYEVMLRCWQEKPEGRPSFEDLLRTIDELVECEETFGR
Assay: Expression proteomics in THP-1 cells, TEC level
Format: cell-based
Settings: TEC protein log2 fold change, 24 h, 1.0 μM
Procedure: THP-1 cells were seeded at a concentration of 3×10^6 cells in T175 flasks with 60 mL growth medium (RPM11640+10% FBS). […] of a 10× compound solution prepared in growth medium (DMSO), IAP PROTAC) was added and the cells were treated for the indicated time points (6 or 24 h) at 37° C., 5% CO2. For harvesting the cells were collected into falcon tubes on ice, centrifuged and washed twice in cold PBS (Life technologies). After the last washing step the supernatant was removed and the pellets were snap-frozen in liquid N2 and stored at −80° C. and lysed in 2% SDS for 3 min at 95° C. in a thermomixer (Thermo Fisher Scientific), followed by digestion of DNA with Benzonase at 37° C. for 1.5 h. Lysate was cleared by centrifugation an protein concentration in supernatant was determined by BCA assay.
Leukemia 25, 89-100 (2011).
Samples were dried in vacuo and resuspended in 0.05% trifluoroacetic acid in water. […]
Reporter ion intensities were read from raw data and multiplied with ion accumulation times (the unit is milliseconds) so as to yield a measure proportional to the number of ions;
Nat Biotech 29, 255-265 (2011). this measure is referred to as ion area Savitski, M. M. et al. Delayed Fragmentation and Optimized Isolation Width Settings for Improvement of Protein Identification and Accuracy of Isobaric Mass Tag Quantification on Orbitrap-Type Mass Spectrometers. […]

CNC(=O)c1ccccc1Nc1nc(Nc2ccc(N3CCN(CCOCCOCCOCCOc4ccc5c(c4)CN(C(=O)[C@@H](NC(=O)[C@H](C)NC)C(C)(C)C)[C@H](C(=O)N[C@@H]4CCCc6ccccc64)C5)CC3)cc2)ncc1Cl [IAP, (S)-7-(2-(2-(2-(2-(4-(4-((5-Chloro-4-((2-(methylcarbamoyl)phenyl)amino)pyrimidin-2-yl)amino)phenyl)piperazin-1-yl)ethoxy)ethoxy)ethoxy)ethoxy)-2-((S)-3,3-dimethyl-2-((S)-2-(methylamino)propanamido)butanoyl)-N-((R)-1,2,3,4-tetrahydronaphthalen-1-yl)-1,2,3,4-tetrahydroisoquinoline-3-carboxamide]
log2fc_IAP_24 h_1.0 μM_n1 (replicate n1): −1.79
log2fc_IAP_24 h_1.0 μM_n2 (replicate n2): −2.04
